Results reported in ChEMBL document CHEMBL1148538, “Scaffold oriented synthesis. Part 1: Design, preparation, and biological evaluation of thienopyrazoles as kinase inhibitors” (Bioorg Med Chem Lett, 2006).

Experiments:
[1] = biological target: Vascular endothelial growth factor receptor 2 (Homo sapiens, UniProt P35968); test: Inhibitory activity against KDR
[2] = biological target: Serine/threonine-protein kinase PLK1 (Homo sapiens, UniProt P53350); test: Inhibitory activity against Plk1
[3] = biological target: Serine/threonine-protein kinase PAK 4 (Homo sapiens, UniProt O96013); test: Inhibitory activity against Pak4
Chain of Serine/threonine-protein kinase PAK 4 (O96013 whole entry): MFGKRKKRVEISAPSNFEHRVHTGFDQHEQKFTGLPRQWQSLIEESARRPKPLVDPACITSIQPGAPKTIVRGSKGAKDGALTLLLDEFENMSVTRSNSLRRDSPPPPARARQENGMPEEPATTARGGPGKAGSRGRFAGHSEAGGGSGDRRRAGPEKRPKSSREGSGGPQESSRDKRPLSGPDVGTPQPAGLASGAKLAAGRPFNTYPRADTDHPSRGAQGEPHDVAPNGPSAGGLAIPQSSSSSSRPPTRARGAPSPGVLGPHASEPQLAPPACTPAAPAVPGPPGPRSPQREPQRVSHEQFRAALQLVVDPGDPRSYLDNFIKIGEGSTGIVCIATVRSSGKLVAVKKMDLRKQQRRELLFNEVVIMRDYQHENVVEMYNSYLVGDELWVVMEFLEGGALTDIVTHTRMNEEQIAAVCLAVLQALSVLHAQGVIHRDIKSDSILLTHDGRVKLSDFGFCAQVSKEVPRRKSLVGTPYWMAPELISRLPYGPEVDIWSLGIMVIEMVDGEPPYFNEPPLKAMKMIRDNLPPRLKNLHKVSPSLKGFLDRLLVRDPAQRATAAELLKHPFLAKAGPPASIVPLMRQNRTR

Casein kinase II = Casein kinase II (Homo sapiens, UniProt P19784+P67870+P68400); test: Inhibitory activity against CK2; type: protein-complex assay
Chain of Casein kinase II (P67870 whole entry): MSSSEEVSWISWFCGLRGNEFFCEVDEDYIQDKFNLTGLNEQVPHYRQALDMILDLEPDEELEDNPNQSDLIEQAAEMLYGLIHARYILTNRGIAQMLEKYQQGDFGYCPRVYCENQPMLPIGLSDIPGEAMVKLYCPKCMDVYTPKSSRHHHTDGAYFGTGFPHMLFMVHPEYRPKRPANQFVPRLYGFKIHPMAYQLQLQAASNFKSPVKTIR
Chain of Casein kinase II (P68400 whole entry): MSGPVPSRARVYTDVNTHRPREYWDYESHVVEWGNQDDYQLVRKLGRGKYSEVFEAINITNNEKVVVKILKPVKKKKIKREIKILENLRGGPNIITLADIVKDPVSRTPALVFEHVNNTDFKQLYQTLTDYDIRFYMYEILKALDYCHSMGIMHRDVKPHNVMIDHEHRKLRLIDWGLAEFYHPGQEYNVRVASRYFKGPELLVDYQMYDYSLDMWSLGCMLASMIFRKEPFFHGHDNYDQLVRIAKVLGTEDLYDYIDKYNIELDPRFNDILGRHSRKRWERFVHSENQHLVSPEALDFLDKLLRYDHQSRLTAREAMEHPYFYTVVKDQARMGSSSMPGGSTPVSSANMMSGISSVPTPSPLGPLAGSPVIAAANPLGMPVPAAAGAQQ
Chain of Casein kinase II (P19784 whole entry): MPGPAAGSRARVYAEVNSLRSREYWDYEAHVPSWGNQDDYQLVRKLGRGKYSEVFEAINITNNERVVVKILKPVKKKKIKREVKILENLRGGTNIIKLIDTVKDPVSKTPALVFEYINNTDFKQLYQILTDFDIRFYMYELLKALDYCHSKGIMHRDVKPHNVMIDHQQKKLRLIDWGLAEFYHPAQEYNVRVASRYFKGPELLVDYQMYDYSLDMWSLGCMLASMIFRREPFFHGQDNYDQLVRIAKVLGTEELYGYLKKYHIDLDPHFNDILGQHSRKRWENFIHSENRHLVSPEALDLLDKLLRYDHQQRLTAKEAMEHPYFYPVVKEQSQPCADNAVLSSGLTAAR

[4] = biological target: RAC-alpha serine/threonine-protein kinase (Homo sapiens, UniProt P31749); test: Inhibitory activity against Akt1
Chain of RAC-alpha serine/threonine-protein kinase (P31749 whole entry): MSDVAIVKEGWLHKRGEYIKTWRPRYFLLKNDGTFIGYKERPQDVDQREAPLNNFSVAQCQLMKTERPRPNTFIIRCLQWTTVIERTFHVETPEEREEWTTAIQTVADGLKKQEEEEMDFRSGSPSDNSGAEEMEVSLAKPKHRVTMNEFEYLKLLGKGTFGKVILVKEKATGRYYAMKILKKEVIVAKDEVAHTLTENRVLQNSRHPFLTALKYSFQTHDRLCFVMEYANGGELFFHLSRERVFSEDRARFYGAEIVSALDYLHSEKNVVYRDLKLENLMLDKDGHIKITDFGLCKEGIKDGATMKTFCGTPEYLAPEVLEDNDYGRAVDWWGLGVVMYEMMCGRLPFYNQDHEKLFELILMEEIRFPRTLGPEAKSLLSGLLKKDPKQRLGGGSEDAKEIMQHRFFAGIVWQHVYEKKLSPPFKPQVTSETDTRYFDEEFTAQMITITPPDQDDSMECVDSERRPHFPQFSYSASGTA

[5] = biological target: MAP kinase-activated protein kinase 2 (Homo sapiens, UniProt P49137); test: Inhibitory activity against MK2
[6] = biological target: Mitogen-activated protein kinase kinase kinase 8 (Homo sapiens, UniProt P41279); test: Inhibitory activity against COT
Chain of Mitogen-activated protein kinase kinase kinase 8 (P41279 whole entry): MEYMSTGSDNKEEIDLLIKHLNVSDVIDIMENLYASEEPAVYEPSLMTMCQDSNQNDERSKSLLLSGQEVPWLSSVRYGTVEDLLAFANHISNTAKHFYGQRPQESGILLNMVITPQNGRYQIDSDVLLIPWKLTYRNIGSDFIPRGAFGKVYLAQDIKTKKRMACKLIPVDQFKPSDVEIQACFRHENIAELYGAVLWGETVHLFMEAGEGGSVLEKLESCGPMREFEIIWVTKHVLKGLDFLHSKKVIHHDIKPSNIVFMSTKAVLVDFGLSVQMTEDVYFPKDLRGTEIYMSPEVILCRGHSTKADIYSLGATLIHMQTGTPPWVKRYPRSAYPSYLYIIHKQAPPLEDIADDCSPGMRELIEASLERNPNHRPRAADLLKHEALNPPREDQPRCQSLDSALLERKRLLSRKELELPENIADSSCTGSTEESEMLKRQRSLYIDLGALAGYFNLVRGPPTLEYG

[7] = biological target: Cyclin-dependent kinase 2/cyclin A (Homo sapiens, UniProt P24941); test: Inhibitory activity against CDK2/Cyclin A; type: protein-complex assay
[8] = biological target: Mitogen-activated protein kinase 14 (Homo sapiens, UniProt Q16539); test: Inhibitory activity against p38alpha
Chain of Mitogen-activated protein kinase 14 (Q16539 whole entry): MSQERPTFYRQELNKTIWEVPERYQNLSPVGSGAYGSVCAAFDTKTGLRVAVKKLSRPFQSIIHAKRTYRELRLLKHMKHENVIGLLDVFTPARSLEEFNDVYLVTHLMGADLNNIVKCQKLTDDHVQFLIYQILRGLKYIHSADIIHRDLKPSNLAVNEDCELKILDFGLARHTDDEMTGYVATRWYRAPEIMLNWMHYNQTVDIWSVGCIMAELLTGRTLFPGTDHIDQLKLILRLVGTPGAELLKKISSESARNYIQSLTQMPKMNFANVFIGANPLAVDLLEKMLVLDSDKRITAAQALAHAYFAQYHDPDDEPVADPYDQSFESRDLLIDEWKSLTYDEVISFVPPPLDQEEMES

Chain of Vascular endothelial growth factor receptor 2 (P35968 whole entry): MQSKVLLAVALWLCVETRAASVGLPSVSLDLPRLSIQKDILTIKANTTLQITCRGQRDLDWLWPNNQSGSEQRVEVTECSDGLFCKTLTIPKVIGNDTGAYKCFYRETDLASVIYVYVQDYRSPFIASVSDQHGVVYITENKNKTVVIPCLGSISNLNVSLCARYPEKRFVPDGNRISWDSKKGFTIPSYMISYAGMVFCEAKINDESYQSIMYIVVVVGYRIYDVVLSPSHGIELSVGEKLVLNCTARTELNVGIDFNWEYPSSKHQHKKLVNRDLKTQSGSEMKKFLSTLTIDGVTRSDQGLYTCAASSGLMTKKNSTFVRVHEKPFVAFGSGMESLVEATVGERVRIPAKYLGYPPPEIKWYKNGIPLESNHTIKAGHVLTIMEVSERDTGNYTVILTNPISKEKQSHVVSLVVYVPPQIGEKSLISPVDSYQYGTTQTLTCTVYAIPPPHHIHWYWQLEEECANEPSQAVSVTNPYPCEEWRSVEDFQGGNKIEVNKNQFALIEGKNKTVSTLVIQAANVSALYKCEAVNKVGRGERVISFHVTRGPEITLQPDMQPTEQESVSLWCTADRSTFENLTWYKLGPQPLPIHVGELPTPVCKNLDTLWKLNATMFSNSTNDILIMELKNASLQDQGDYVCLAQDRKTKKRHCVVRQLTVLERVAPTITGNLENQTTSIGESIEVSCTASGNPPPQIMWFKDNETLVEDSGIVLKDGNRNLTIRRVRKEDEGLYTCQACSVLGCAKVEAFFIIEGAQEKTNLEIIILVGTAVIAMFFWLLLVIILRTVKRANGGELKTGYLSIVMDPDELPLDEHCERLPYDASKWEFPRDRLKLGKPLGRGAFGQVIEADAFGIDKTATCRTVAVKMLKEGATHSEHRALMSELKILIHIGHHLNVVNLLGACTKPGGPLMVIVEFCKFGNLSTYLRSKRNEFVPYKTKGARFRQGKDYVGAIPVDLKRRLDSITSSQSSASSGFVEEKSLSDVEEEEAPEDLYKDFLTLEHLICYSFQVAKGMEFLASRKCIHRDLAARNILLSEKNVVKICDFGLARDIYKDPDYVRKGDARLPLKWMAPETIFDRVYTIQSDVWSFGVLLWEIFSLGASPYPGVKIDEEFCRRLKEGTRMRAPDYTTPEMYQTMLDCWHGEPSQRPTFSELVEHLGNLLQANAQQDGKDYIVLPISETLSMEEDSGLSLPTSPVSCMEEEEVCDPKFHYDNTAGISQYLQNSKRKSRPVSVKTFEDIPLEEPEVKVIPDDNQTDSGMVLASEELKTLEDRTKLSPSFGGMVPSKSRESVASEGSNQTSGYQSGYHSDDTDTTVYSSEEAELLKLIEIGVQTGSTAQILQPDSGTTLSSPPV
Chain of Serine/threonine-protein kinase PLK1 (P53350 whole entry): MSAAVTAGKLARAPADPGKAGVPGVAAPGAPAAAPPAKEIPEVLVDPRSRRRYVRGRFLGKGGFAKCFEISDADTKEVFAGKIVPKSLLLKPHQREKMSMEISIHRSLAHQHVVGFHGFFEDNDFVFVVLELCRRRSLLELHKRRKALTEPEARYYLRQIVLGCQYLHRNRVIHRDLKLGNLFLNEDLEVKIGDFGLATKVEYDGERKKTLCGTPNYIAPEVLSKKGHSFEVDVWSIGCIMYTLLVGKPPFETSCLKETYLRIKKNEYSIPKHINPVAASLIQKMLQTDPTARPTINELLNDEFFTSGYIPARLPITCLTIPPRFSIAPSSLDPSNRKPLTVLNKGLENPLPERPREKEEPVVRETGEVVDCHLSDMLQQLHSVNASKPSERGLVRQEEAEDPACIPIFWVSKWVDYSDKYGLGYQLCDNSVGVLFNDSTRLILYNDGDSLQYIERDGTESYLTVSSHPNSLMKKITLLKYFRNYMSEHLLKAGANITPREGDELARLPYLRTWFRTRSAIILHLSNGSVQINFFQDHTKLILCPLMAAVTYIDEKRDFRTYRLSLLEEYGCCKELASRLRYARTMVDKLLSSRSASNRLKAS

| IC50 [1] | IC50 [2] | IC50 [3] | IC50 (Casein kinase II) | IC50 [4] | IC50 [5] | IC50 [6] | IC50 [7] | IC50 [8] | Compound |
| --- | --- | --- | --- | --- | --- | --- | --- | --- | --- |
| 17 µM | > 20 µM | > 20 µM | 4 µM | > 20 µM | > 20 µM | > 20 µM |  |  | Cc1n[nH]c2sc(C(N)=O)cc12 |
| > 20 µM | > 20 µM | > 20 µM | > 20 µM | > 20 µM | > 20 µM | > 20 µM |  |  | Cc1n[nH]c2sc(C(=O)NC3CCCCC3)cc12 |
| 16 µM | > 20 µM | > 20 µM | 21 µM | > 20 µM | > 20 µM | > 20 µM |  |  | CCCCNC(=O)c1cc2c(C)n[nH]c2s1 |
| > 100 µM | 21 µM | 37 µM | 5 µM | 16 µM |  |  |  |  | COC(=O)c1cc2c(Nc3ccccc3)[nH]nc2s1 |
| > 100 µM | > 100 µM | > 100 µM | > 100 µM | > 100 µM |  |  |  |  | Cc1[nH]nc2sc(C(N)=O)c(NC(=O)c3ccc(Cl)cc3)c12 |
| 0.35 µM | > 20 µM | > 20 µM | 5 µM | > 20 µM | > 20 µM | > 20 µM | > 20 µM | > 20 µM | CCCCN(C)C(=O)c1cc2c(-c3ccccc3)n[nH]c2s1 |
| 17 µM | 8 µM | > 100 µM | 3 µM | > 100 µM |  |  |  |  | COC(=O)C(=O)Nc1c(C(N)=O)sc2[nH]nc(C)c12 |
| 0.51 µM | > 20 µM | > 20 µM | > 20 µM | > 20 µM | 16 µM | > 20 µM | > 20 µM | > 20 µM | COc1ccc(CNC(=O)c2cc3c(-c4ccccc4)n[nH]c3s2)cc1 |
| 12 µM | 16 µM | > 20 µM | 19 µM | > 20 µM | > 20 µM | > 20 µM |  |  | Cc1n[nH]c2sc(C(=O)NCc3ccccc3)cc12 |
| 20 µM | > 20 µM | 13 µM | 11 µM | 9 µM |  |  |  |  | Cc1[nH]nc2sc(C(N)=O)c(NC(=O)Nc3ccccc3)c12 |
| 11 µM | > 100 µM | > 100 µM | 6 µM | > 100 µM |  |  |  |  | Cc1n[nH]c2sc(C(N)=O)c(NC(=O)COc3ccccc3)c12 |
| 8 µM | 23 µM | > 100 µM | 9 µM | > 100 µM |  |  |  |  | Cc1[nH]nc2sc(C(N)=O)c(NC(=O)c3ccccc3Cl)c12 |
| 0.49 µM | 12 µM | > 20 µM | > 20 µM | > 20 µM | > 20 µM | > 20 µM | 11 µM | > 20 µM | O=C(NC1CCCCC1)c1cc2c(-c3ccccc3)n[nH]c2s1 |
| > 100 µM | > 100 µM | > 100 µM | > 100 µM | > 100 µM |  |  |  |  | COC(=O)c1cc2c(CN3CCCCC3)n[nH]c2s1 |
| 2 µM | 17 µM | > 20 µM | > 20 µM | > 20 µM | > 20 µM | > 20 µM | > 20 µM | > 20 µM | O=C(NCCc1ccccc1)c1cc2c(-c3ccccc3)n[nH]c2s1 |
| 6 µM | > 100 µM | > 100 µM | > 100 µM | 17 µM |  |  |  |  | Cc1n[nH]c2sc(C(N)=O)c(NC(=O)c3cccs3)c12 |
| > 100 µM | > 100 µM | > 100 µM | > 100 µM | > 100 µM |  |  |  |  | Cc1n[nH]c2sc(C(N)=O)c(NC(=O)c3cccc(Cl)c3)c12 |
| 4 µM | > 20 µM | > 20 µM | > 20 µM | > 20 µM | > 20 µM | > 20 µM | > 20 µM | > 20 µM | CN1CCN(C(=O)c2cc3c(-c4ccccc4)n[nH]c3s2)CC1 |
| > 20 µM | > 20 µM | > 20 µM | 24 µM | > 20 µM | > 20 µM | > 20 µM |  |  | CCCCN(C)C(=O)c1cc2c(C)n[nH]c2s1 |
| 19 µM | > 20 µM | > 20 µM | 9 µM | > 20 µM |  |  |  |  | CC(=O)Nc1c(C(N)=O)sc2n[nH]c(C)c12 |
| 23 µM | > 100 µM | > 100 µM | 38 µM | > 100 µM |  |  |  |  | COC(=O)c1cc2c(C)n[nH]c2s1 |
| 0.5 µM |  | > 20 µM | 2 µM | 15 µM | 17 µM | > 20 µM |  |  | O=C(NCc1ccccc1)c1cc2c(-c3ccccc3)n[nH]c2s1 |
